{"source": "ChEMBL document CHEMBL5518209", "about": "“Caltrop-like Small-Molecule Antidotes That Neutralize Unfractionated Heparin and Low-Molecular-Weight Heparin In Vivo” (J Med Chem, 2024)", "key": {"[1]": {"species_on_record": "Homo sapiens", "experiment": "Neutralization of nadroparin calcium in human poor platelet plasma at 10 to 50 ug/ml by aPTT assay relative to control", "type": "cell-free", "conditions": "dose 10-50 µg/ml"}, "[2]": {"species_on_record": "Bos taurus", "experiment": "Neutralization of unfractionated heparin in bovine plasma at 10 to 60 ug/ml by aPTT assay", "type": "cell-free", "conditions": "dose 10-60 µg/ml"}, "[3]": {"species_on_record": "Bos taurus", "experiment": "Neutralization of dalteparin sodium in bovine plasma at 10 to 60 ug/ml by aPTT assay", "type": "cell-free", "conditions": "dose 10-60 µg/ml"}, "[4]": {"species_on_record": "Bos taurus", "experiment": "Neutralization of nadroparin calcium in bovine plasma at 10 to 60 ug/ml by aPTT assay", "type": "cell-free", "conditions": "dose 10-60 µg/ml"}, "[5]": {"experiment": "Binding affinity to enoxaparin sodium in saline at pH 7.4 assessed as binding constant by ITC analysis"}, "[6]": {"experiment": "Binding affinity to dalteparin sodium in saline at pH 7.4 assessed as change in enthalpy by ITC analysis"}, "[7]": {"experiment": "Binding affinity to unfractionated heparin in saline at pH 7.4 assessed as change in entropy by ITC analysis"}, "[8]": {"experiment": "Binding affinity to dalteparin sodium in saline at pH 7.4 assessed as change in entropy by ITC analysis"}, "[9]": {"experiment": "Binding affinity to nadroparin calcium in saline at pH 7.4 assessed as change in entropy by ITC analysis"}, "[10]": {"experiment": "Binding affinity to unfractionated heparin in saline at pH 7.4 assessed as change in gibbs free energy by ITC analysis"}, "[11]": {"experiment": "Binding affinity to enoxaparin sodium in saline at pH 7.4 assessed as change in gibbs free energy by ITC analysis"}, "[12]": {"experiment": "Binding affinity to nadroparin calcium in saline at pH 7.4 assessed as change in gibbs free energy by ITC analysis"}, "[13]": {"species_on_record": "Homo sapiens", "experiment": "Reversal of anticoagulation of enoxaparin sodium in human whole blood assessed as restoration of normal clotting time at 5 to 20 ug/ml incubated for 5 mins by thromboelastography", "type": "tissue-based", "conditions": "dose 5-20 µg/ml"}, "[14]": {"species_on_record": "Homo sapiens", "experiment": "Reversal of anticoagulation of nadroparin calcium in human whole blood assessed as restoration of normal clotting time at 5 to 20 ug/ml incubated for 5 mins by thromboelastography", "type": "tissue-based", "conditions": "dose 5-20 µg/ml"}, "[15]": {"species_on_record": "Homo sapiens", "experiment": "Reversal of anticoagulation of dalteparin sodium in human whole blood assessed as restoration of normal coagulation rate at 5 to 20 ug/ml incubated for 5 mins by thromboelastography", "type": "tissue-based", "conditions": "dose 5-20 µg/ml"}, "[16]": {"species_on_record": "Homo sapiens", "experiment": "Reversal of anticoagulation of nadroparin calcium in human whole blood assessed as restoration of normal coagulation rate at 5 to 20 ug/ml incubated for 5 mins by thromboelastography", "type": "tissue-based", "conditions": "dose 5-20 µg/ml"}, "[17]": {"species_on_record": "Homo sapiens", "experiment": "Reversal of anticoagulation of unfractionated heparin in human whole blood assessed as restoration of normal clotting strength at 2 to 20 ug/ml incubated for 5 mins by thromboelastography", "type": "tissue-based", "conditions": "dose 2-20 µg/ml"}, "[18]": {"experiment": "Binding affinity to unfractionated heparin in saline at pH 7.4 assessed as increase in fluorescence by measuring inflection point by fluorescence titration method"}, "[19]": {"experiment": "Binding affinity to nadroparin calcium in saline at pH 7.4 assessed as increase in fluorescence by measuring inflection point by fluorescence titration method"}, "[20]": {"species_on_record": "Homo sapiens", "experiment": "Reversal of anticoagulation of dalteparin sodium in human whole blood assessed as minimum effective dose incubated for 5 mins by thromboelastography", "type": "tissue-based"}, "[21]": {"experiment": "Effect on bleeding time in ICR mouse at 0.4 mg/kg, iv treated for 5 mins", "type": "toxicity, organism-based", "conditions": "in vivo"}, "[22]": {"experiment": "Induction of blood loss in ICR mouse at 0.4 mg/kg, iv treated for 5 mins", "type": "toxicity, organism-based", "conditions": "in vivo"}, "[23]": {"tested_on": "Mus musculus", "experiment": "In vivo antagonism of unfractionated heparin induced anticoagulation in ICR mouse assessed as bleeding time at 0.4 mg/kg, iv administered via tail vein pretreated with heparin for 5 mins followed by compound addition and measured after 5 mins (reference value: 96.5 +/- 20.6 min)", "type": "functional"}, "[24]": {"tested_on": "Mus musculus", "experiment": "In vivo antagonism of dalteparin sodium induced anticoagulation in ICR mouse assessed as bleeding time at 0.4 mg/kg, iv administered via tail vein pretreated with heparin for 5 mins followed by compound addition and measured after 5 mins (reference value: 96.5 +/- 20.6 min)", "type": "functional"}, "[25]": {"tested_on": "Rattus norvegicus", "experiment": "In vivo antagonism of enoxaparin sodium induced anticoagulation in Sprague-Dawley rat assessed as clotting time at 0.4 mg/kg, iv administered via tail vein pretreated with enoxaparin sodium for 5 mins followed by compound addition and measured after 2.5 mins by thromboelastography", "type": "functional"}, "[26]": {"tested_on": "Rattus norvegicus", "experiment": "In vivo antagonism of enoxaparin sodium induced anticoagulation in Sprague-Dawley rat assessed as clotting strength at 0.4 mg/kg, iv administered via tail vein pretreated with enoxaparin sodium for 5 mins followed by compound addition and measured after 2.5 mins by thromboelastography", "type": "functional"}, "[27]": {"tested_on": "Rattus norvegicus", "experiment": "In vivo antagonism of enoxaparin sodium induced anticoagulation in Sprague-Dawley rat assessed as clotting rate at 0.4 mg/kg, iv administered via tail vein pretreated with enoxaparin sodium for 5 mins followed by compound addition and measured after 2.5 mins by thromboelastography", "type": "functional"}, "[28]": {"tested_on": "Rattus norvegicus", "experiment": "(§1) In vivo antagonism of enoxaparin sodium induced anticoagulation in Sprague-Dawley rat assessed as restoration of normal clotting time at 1 mg/kg, iv administered via tail vein pretreated with enoxaparin sodium for 5 mins followed by compound addition and measured after 2.5 mins by thromboelastography", "type": "functional, organism-based"}, "[29]": {"tested_on": "Rattus norvegicus", "experiment": "as §1, with “rate” for “time”", "type": "functional, organism-based"}, "[30]": {"experiment": "Cytotoxicity against rat H9c2 cells assessed as cell viability at 300 ug/ml incubated for 24 hrs by CCK-8 assay relative to control", "type": "toxicity, cell-based", "conditions": "at 300 µg/mL, read-out: Activity"}, "[31]": {"experiment": "Toxicity in iv dosed ICR mouse assessed as maximum tolerated dose administered through tail vein", "type": "organism-based", "conditions": "in vivo"}, "[32]": {"experiment": "Toxicity in ICR mouse assessed as effect on animal activity at 25 mg/kg, iv administered as single dose through tail vein and measured on day 2", "type": "organism-based", "conditions": "in vivo, 48 h, time 2 day"}, "[33]": {"experiment": "Toxicity in ICR mouse assessed as histopathological changes in heart at 25 mg/kg, iv administered as single dose through tail vein and measured after 14 days by H and E staining based analysis", "type": "organism-based", "conditions": "in vivo, 336 h, time 14 day"}, "[34]": {"experiment": "Toxicity in ICR mouse assessed as histopathological changes in liver at 25 mg/kg, iv administered as single dose through tail vein and measured after 14 days by H and E staining based analysis", "type": "organism-based", "conditions": "in vivo, 336 h, time 14 day"}, "[35]": {"experiment": "Toxicity in ICR mouse assessed as histopathological changes in lungs at 25 mg/kg, iv administered as single dose through tail vein and measured after 14 days by H and E staining based analysis", "type": "organism-based, Lung", "conditions": "in vivo, 336 h, time 14 day"}, "[36]": {"experiment": "Toxicity in ICR mouse assessed as histopathological changes in kidneys at 25 mg/kg, iv administered as single dose through tail vein and measured after 14 days by H and E staining based analysis", "type": "organism-based, Kidney", "conditions": "in vivo, 336 h, time 14 day"}, "[37]": {"experiment": "Toxicity in Sprague-Dawley rat assessed as change in urine indexes at 0.4 mg/kg, iv measured after 5 hrs", "type": "organism-based", "conditions": "in vivo"}, "[38]": {"experiment": "Toxicity in Sprague-Dawley rat assessed as abnormal index of microalbumin at 25 mg/kg, iv measured after 5 hrs", "type": "organism-based", "conditions": "in vivo"}, "[39]": {"experiment": "Blood compatibility in bovine plasma assessed as activated partial thromboplastin time at <45 ug/ml by turbidimetry method", "type": "toxicity, cell-free, Bos taurus", "conditions": "cattle, dose < 45 µg/ml"}, "[40]": {"tested_on": "Erythrocyte", "experiment": "Hemolytic activity in Sprague-Dawley rat red blood cells at 512 ug/ml", "type": "toxicity, cell-based", "conditions": "dose 512 µg/ml"}}, "note": "The source made the active and inactive calls. The rule behind the calls is not given here."}
{"smiles": "NCCOc1ccc(-c2cc[n+](Cc3ccc(C(c4ccc(C[n+]5ccc(-c6ccc(OCCN)c(OCCN)c6)cc5)cc4)(c4ccc(C[n+]5ccc(-c6ccc(OCCN)c(OCCN)c6)cc5)cc4)c4ccc(C[n+]5ccc(-c6ccc(OCCN)c(OCCN)c6)cc5)cc4)cc3)cc2)cc1OCCN.[Cl-].[Cl-].[Cl-].[Cl-]", "values": [{"measurement": "Activity", "setting": "[1]", "value": 99, "unit": "%"}, {"measurement": "Activity", "setting": "[2]", "value": "Active"}, {"measurement": "Activity", "setting": "[3]", "value": "Active"}, {"measurement": "Activity", "setting": "[4]", "value": "Active"}, {"measurement": "Ka", "setting": "[5]", "value": "1.79e+07", "unit": "M⁻¹"}, {"measurement": "deltaH", "setting": "[6]", "value": -5.07, "unit": "kcal/mol"}, {"measurement": "-TdeltaS", "setting": "[7]", "value": -4.32, "unit": "kcal/mol"}, {"measurement": "-TdeltaS", "setting": "[8]", "value": -5.41, "unit": "kcal/mol"}, {"measurement": "-TdeltaS", "setting": "[9]", "value": -3.4, "unit": "kcal/mol"}, {"measurement": "deltaG", "setting": "[10]", "value": -10.2, "unit": "kcal/mol"}, {"measurement": "deltaG", "setting": "[11]", "value": -9.91, "unit": "kcal/mol"}, {"measurement": "deltaG", "setting": "[12]", "value": -9.92, "unit": "kcal/mol"}, {"measurement": "Activity", "setting": "[13]", "value": "Active"}, {"measurement": "Activity", "setting": "[14]", "value": "Active"}, {"measurement": "Activity", "setting": "[15]", "value": "Active"}, {"measurement": "Activity", "setting": "[16]", "value": "Active"}, {"measurement": "Activity", "setting": "[17]", "value": "Active"}, {"measurement": "IP", "setting": "[18]", "value": 2.4}, {"measurement": "IP", "setting": "[19]", "value": 3}, {"measurement": "MED", "setting": "[20]", "value": 4, "unit": "µg/mL"}, {"measurement": "Activity", "setting": "[21]", "value": "Non-Toxic"}, {"measurement": "Activity", "setting": "[22]", "value": "Non-Toxic"}, {"measurement": "Time", "setting": "[23]", "value": 22.7, "unit": "min"}, {"measurement": "Time", "setting": "[24]", "value": 20.9, "unit": "min"}, {"measurement": "Time", "setting": "[25]", "value": 3.63, "unit": "min"}, {"measurement": "Activity", "setting": "[26]", "value": 67, "unit": "mm"}, {"measurement": "Activity", "setting": "[27]", "value": 1.95, "unit": "min"}, {"measurement": "Activity", "setting": "[28]", "value": "Active"}, {"measurement": "Activity", "setting": "[29]", "value": "Active"}, {"measurement": "viability at 24 h, 300 ug/ml", "setting": "[30]", "value": "> 80", "unit": "%"}, {"measurement": "MTD", "setting": "[31]", "value": 25, "unit": "mg/kg"}, {"measurement": "Activity", "setting": "[32]", "value": "Toxic"}, {"measurement": "Activity", "setting": "[33]", "value": "Non-Toxic"}, {"measurement": "Activity", "setting": "[34]", "value": "Non-Toxic"}, {"measurement": "Activity", "setting": "[35]", "value": "Non-Toxic"}, {"measurement": "Activity", "setting": "[36]", "value": "Non-Toxic"}, {"measurement": "Activity", "setting": "[37]", "value": "Non-Toxic"}, {"measurement": "Activity", "setting": "[38]", "value": "Toxic"}, {"measurement": "APTT", "setting": "[39]", "value": 23, "unit": "s"}, {"measurement": "Activity", "setting": "[40]", "value": "Non-Toxic"}]}
